This is an account of results in US5238922A, “Inhibitors of farnesyl protein transferase” (Merck & Co., Inc., priority 1991, dated 1993).

Assay [1] deals with T1, Farnesyl-protein transferase (FTase) from bovine brain (Bos taurus, UniProt P29702+P49355).
T1 construct: incubated with this partially purified enzyme preparation; from tissue; host or cells: bovine brain
The assay is described as follows: In vitro inhibition of Ras Farnesyl Transferase. Format: biochemical. Particulars: partially purified bovine brain FTase; Ras-CVLS 3.5 μM, 0.25 μM [3H]FPP; read-out: IC50 (concentration of compound which gives 50% inhibition of FTase). Here is the method:
Farnesyl-protein transferase (FTase) from bovine brain was chromatographed on DEAE-Sephacel (Pharmacia, 0-0.8M NaCl gradient elution), N-octyl agarose (Sigma, 0-0.6M NaCl gradient elution),, and a mono Q HPLC column (Pharmacia, 0-0.3M NaCl gradient). Ras-CVLS at 3.5 μM, 0.25 μM [^3 H]FPP, and the indicated compounds were incubated with this partially purified enzyme preparation. The FTase data presented below is a measurement of the ability of the test compound to inhibit Ras farnesylation in vitro.

Assay [2] deals with Ras farnesylation in the v-ras cell line (viral Ha-ras p21). The assay can be described thus: In vivo ras farnesylation assay (v-ras cell line). Format: cell-based. Here is the method:
The cell line used in this assay was the v-ras line, which expressed viral Ha-ras p21. The assay was performed essentially as described in DeClue, J. E. et. al., Cancer Research 51, 712-717, (1991). Cells in 10 cm dishes at 50-75% confluency were treated with the test compound (final concentration of solvent, methanol or dimethyl sulfoxide, was 0.1%). After 4 hours at 37° C., the cells were labelled in 3 ml methionine-free DMEM supplemented with 10% regular DMEM, 2% fetal bovine serum and 400 μCi[^35 S]methionine (1000 Ci/mmol). After an additional 20 hours, the cells were lysed in 1 ml lysis buffer (1% NP40/20 mM HEPES, pH 7.5/5 mM MgCl2 /1 mM DTT/10 μg/ml aprotinen/2 μg/ml leupeptin/2 μg/ml antipain/0.5 mM PMSF) and the lysates cleared by centrifugation at 100,000×g for 45 min. Aliqouts of lysates containing equal numbers of acid-precipitable counts were bought to 1 ml with IP buffer (lysis buffer lacking DTT) and immunoprecipitated with the ras-specific monoclonal antibody Y13-259 (Furth, M. E. et. al., J. Virol. 43, 294-304, (1982)). Following a 2 hour antibody incubation at 4° C., 200 μl of a 25% suspension of protein A-Sepharose coated with rabbit anti rat IgG was added for 45 min. […]

For `CSCC[C@H](NC(=O)[C@H](Cc1ccccc1)NC[C@@H](NC(=O)[C@@H](N)CS)C(C)C)C(=O)O` [N-(3-methyl-2(S)-(cysteinylamino)but-1-yl)phenylalanyl-methionine], the IC50 in assay [1] worked out at 7 nM.
Take `CC[C@H](C)[C@@H](CN[C@@H](Cc1ccccc1)C(=O)N[C@@H](CCSC)C(=O)O)NC[C@@H](N)CS` [N-[2(S)-(2(R)-amino-3-mercaptopropylamino)-3(S)-methylpentyl]phenylalanyl-methionine]: the “Inhibition of Ras Farnesylation in the v-ras cell line” value in assay [2] (at 100 μm test concentration) was 30%. Besides, the IC50 in assay [1] was 4.7 nM.
Regarding `CCOC(=O)[C@H](CCSC)NC(=O)[C@H](Cc1ccccc1)NC(=O)[C@@H](NC[C@@H](N)CS)[C@@H](C)CC` [N-(2(R)-amino-3-mercaptopropyl)isoleucyl-phenylalanyl-methionine ethyl ester], in assay [2] (at 10 μm test concentration), the “Inhibition of Ras Farnesylation in the v-ras cell line” value is listed as 10%. Besides, the IC50 in assay [1] amounted to 2000 nM.
